Data reported in patent US20250144172A1, “ANTI-FIBROTIC SIALIDASE INHIBITOR COMPOUNDS AND METHODS OF USE” (The Texas A&M University System, priority 2016, published 2025).
Where two headings read alike, the source gives them in different places. Values belong to the compound of their own block, whether it stands above or below them.

Experiments:
human NEU2 = human NEU2 (Homo sapiens (Human), UniProt Q9Y3R4); assay: human NEU2 sialidase inhibition
human NEU1 = human NEU1 (Homo sapiens (Human), UniProt Q99519); assay: human NEU1 sialidase inhibition
human NEU3 = human NEU3 (Homo sapiens (Human), UniProt Q9UQ49); assay: human NEU3 sialidase inhibition
human NEU4 = human NEU4 (Homo sapiens (Human), UniProt Q8WWR8); assay: human NEU4 sialidase inhibition
human PBMC = assay: fibrocyte formation in human PBMC, serum-free medium; format: cell-based; conditions: 5 days; 100 ng/ml sialidase, 10 μg/ml DANA or 1 μg/ml SAP
Procedure: Human peripheral blood was collected from healthy adult volunteers who gave written consent and with specific approval from the Texas A&M University human subjects Institutional Review Board. Peripheral blood mononuclear cells (PBMC) were isolated from blood using Ficoll-Paque Plus (GE Healthcare Biosciences, Piscataway, NJ). Human PBMC were incubated in serum-free medium (FibroLife basal media (LM-0001, Lifeline Cell Technology, Walkersville, MD), supplemented with 10 mM HEPES (Sigma-Aldrich, St. Louis, MO), 1x non-essential amino acids (Sigma-Aldrich), 1 mM sodium pyruvate (Sigma-Aldrich), 2 mM glutamine (Invitrogen, Carlsbad, CA), 100 U/ml penicillin, 100 μg/ml streptomycin (Sigma-Aldrich), and 1x ITS-3 (Sigma-Aldrich) in the presence of absence of 100 ng/ml recombinant human sialidases (Origene, Rockville MD), 10 μg/ml DANA (Calbiochem, San Diego, CA), or 1 μg/ml human SAP (Calbiochem). After 5 days, fibrocytes were counted, and results are presented in FIG. 5.

[1] = read-out: NEU2 IC50, human NEU2
[2] = read-out: NEU1 IC50, human NEU1
[3] = read-out: NEU3 IC50, human NEU3
[4] = read-out: NEU4 IC50, human NEU4

Chain of human NEU2 (Q9Y3R4 whole entry): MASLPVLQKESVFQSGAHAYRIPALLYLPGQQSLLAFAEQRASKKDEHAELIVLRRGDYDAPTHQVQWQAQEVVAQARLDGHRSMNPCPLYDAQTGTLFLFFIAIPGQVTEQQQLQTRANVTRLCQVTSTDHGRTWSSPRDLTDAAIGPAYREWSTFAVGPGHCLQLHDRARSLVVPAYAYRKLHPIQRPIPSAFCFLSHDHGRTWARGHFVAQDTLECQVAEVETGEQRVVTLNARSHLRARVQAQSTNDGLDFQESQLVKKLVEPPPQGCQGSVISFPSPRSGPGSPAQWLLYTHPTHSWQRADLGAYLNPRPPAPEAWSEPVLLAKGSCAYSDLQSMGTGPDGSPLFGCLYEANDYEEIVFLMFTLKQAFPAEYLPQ
Chain of human NEU4 (Q8WWR8 whole entry): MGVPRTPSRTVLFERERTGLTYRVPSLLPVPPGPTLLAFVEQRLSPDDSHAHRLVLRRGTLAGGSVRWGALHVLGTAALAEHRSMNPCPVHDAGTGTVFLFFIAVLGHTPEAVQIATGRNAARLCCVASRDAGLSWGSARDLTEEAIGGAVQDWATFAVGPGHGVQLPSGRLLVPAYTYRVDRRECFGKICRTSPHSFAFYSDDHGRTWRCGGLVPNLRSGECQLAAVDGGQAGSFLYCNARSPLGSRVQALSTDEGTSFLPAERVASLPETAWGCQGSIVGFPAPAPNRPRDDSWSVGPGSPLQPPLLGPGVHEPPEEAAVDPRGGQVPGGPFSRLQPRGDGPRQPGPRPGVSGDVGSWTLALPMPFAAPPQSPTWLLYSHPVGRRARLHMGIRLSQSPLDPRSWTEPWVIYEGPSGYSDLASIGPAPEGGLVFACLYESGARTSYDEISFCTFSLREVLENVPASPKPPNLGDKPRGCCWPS
Chain of human NEU3 (Q9UQ49 whole entry): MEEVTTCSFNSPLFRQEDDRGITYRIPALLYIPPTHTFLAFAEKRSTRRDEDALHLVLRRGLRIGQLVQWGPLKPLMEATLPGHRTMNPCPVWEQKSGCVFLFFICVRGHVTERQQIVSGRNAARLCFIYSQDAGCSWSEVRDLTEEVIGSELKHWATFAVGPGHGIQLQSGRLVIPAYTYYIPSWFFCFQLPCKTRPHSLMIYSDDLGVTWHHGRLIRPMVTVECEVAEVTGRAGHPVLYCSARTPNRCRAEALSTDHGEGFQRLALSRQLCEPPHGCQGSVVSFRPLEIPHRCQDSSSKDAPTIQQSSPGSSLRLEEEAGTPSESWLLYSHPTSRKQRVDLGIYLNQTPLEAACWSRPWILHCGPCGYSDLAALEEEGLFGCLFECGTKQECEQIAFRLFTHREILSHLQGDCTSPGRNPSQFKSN

- IC50 (human NEU2; [1]): 34 ± 4 µM
Compound: 2,6-Anhydro-3,5-dideoxy-5-glycolylamido-D-glycero-D-galactonon-2-enonic acid [Compound 39]

- IC50 (human NEU1; [2]): 58 µM
- IC50 (human NEU3; [3]): > 1000 µM
- IC50 (human NEU4; [4]): 580 µM
Compound: CC(=O)NC[C@H](O)[C@H](O)[C@@H]1OC(C(=O)O)=C[C@H](O)[C@H]1NC(C)=O [Compound 2]

Compound: CC(=O)N[C@H]1[C@H]([C@@H](O)[C@@H](O)CNC(=O)c2ccccc2)OC(C(=O)O)=C[C@@H]1O [Compound 3]
- IC50 (human NEU1; [2]): 13 µM
- IC50 (human NEU3; [3]): 320 µM
- IC50 (human NEU4; [4]): 810 µM

- IC50 (human NEU1; [2]): 135 µM
- IC50 (human NEU3; [3]): > 1000 µM
- IC50 (human NEU4; [4]): > 1000 µM
Compound: CC(=O)N[C@H]1[C@H]([C@@H](O)[C@@H](O)CNC(=O)C2CCCC2)OC(C(=O)O)=C[C@@H]1O [Compound 4]

- IC50 (human NEU1; [2]): 680 µM
- IC50 (human NEU3; [3]): > 1000 µM
- IC50 (human NEU4; [4]): 825 µM
Compound: CC(=O)N[C@H]1[C@H]([C@@H](O)[C@@H](O)CNC(=O)C2CC2)OC(C(=O)O)=C[C@@H]1O [Compound 5]

- IC50 (human NEU1; [2]): 32 µM
- IC50 (human NEU3; [3]): > 1000 µM
Compound: CCCC(=O)NC[C@H](O)[C@H](O)[C@@H]1OC(C(=O)O)=C[C@H](O)[C@H]1NC(C)=O [Compound 6]

- IC50 (human NEU1; [2]): 565 µM
- IC50 (human NEU3; [3]): > 1000 µM
- IC50 (human NEU4; [4]): > 1000 µM
Compound: CC(=O)N[C@H]1[C@H]([C@@H](O)[C@@H](O)CNC(=O)CC(C)C)OC(C(=O)O)=C[C@@H]1O [Compound 7]

- IC50 (human NEU4; [4]): > 1000 µM
Compound: CCCCC(=O)NC[C@H](O)[C@H](O)[C@@H]1OC(C(=O)O)=C[C@H](O)[C@H]1NC(C)=O [Compound 8]

- Ki (human NEU2): 880 µM
Compound: CC(=O)N[C@@H]1[C@@H](O)C=C(C(=O)O)C[C@H]1OCC(C)C [Compound 12]

- Ki (human NEU2): 740 µM
Compound: CC(=O)N[C@@H]1[C@@H](O)C=C(C(=O)O)C[C@H]1OCCCO [Compound 13]

- Ki (human NEU2): 1400 µM
Compound: CC(=O)N[C@@H]1[C@@H](O)C=C(C(=O)O)C[C@H]1OCC(O)CO (stereo partly drawn) [Compound 14]

- IC50 (human NEU3; [3]): 70 ± 20 µM
Compound: CC(=O)N[C@H]1[C@H]([C@H](O)[C@H](O)Cn2ccnn2)OC(C(=O)O)=C[C@@H]1O [Compound 15]

Compound: CC(=O)N[C@H]1[C@H]([C@H](O)[C@H](O)Cn2cc(-c3ccccc3)nn2)OC(C(=O)O)=C[C@@H]1O [Compound 16]
- IC50 (human NEU3; [3]): 20 ± 10 µM

- IC50 (human NEU3; [3]): 23 ± 4 µM
Compound: CCCCCCc1cn(C[C@@H](O)[C@@H](O)[C@@H]2OC(C(=O)O)=C[C@H](O)[C@H]2NC(C)=O)nn1 [Compound 17]

- IC50 (human NEU3; [3]): 300 ± 200 µM
Compound: CCOc1cn(C[C@@H](O)[C@@H](O)[C@@H]2OC(C(=O)O)=C[C@H](O)[C@H]2NC(C)=O)nn1 [Compound 18]

- IC50 (human NEU3; [3]): 130 ± 20 µM
Compound: CCOC(OCC)c1cn(C[C@@H](O)[C@@H](O)[C@@H]2OC(C(=O)O)=C[C@H](O)[C@H]2NC(C)=O)nn1 [Compound 19]

Compound: CC(=O)N[C@H]1[C@H]([C@H](O)[C@H](O)Cn2cc(COc3ccccc3)nn2)OC(C(=O)O)=C[C@@H]1O [Compound 20]
- IC50 (human NEU3; [3]): 45 ± 3 µM

- IC50 (human NEU3; [3]): 300 ± 400 µM
Compound: CC(=O)N[C@H]1[C@H]([C@H](O)[C@H](O)Cn2cc(CO)nn2)OC(C(=O)O)=C[C@@H]1O [Compound 21]

- IC50 (human NEU3; [3]): 400 ± 600 µM
Compound: CC(=O)N[C@H]1[C@H]([C@H](O)[C@H](O)Cn2cc(CCO)nn2)OC(C(=O)O)=C[C@@H]1O [Compound 22]

- IC50 (human NEU3; [3]): 500 ± 200 µM
Compound: CC(=O)N[C@H]1[C@H]([C@H](O)[C@H](O)Cn2cc(CCCO)nn2)OC(C(=O)O)=C[C@@H]1O [Compound 23]

- IC50 (human NEU3; [3]): 300 ± 500 µM
Compound: CC(=O)N[C@H]1[C@H]([C@H](O)[C@H](O)Cn2cc(C(C)(C)O)nn2)OC(C(=O)O)=C[C@@H]1O [Compound 24]

- Ki (human NEU3): 21 ± 8 µM
Compound: O=C(Cn1ccnn1)N[C@H]1[C@H]([C@H](O)[C@H](O)CO)OC(C(=O)O)=C[C@@H]1O [Compound 25]

Compound: CCC(CC)O[C@@H]1CC(C(=O)O)C=C(n2cc([C@]3(O)CCC4C5CCc6cc(O)ccc6C5CC[C@@]43C)nn2)[C@H]1NC(C)=O (stereo partly drawn) [Compound 29]
- IC50 (human NEU3; NEU3 IC50, human NEU3): 350 ± 100 µM
- IC50 (human NEU4): 800 ± 400 µM

- IC50 (human NEU3; [3]): 640 ± 210 µM
Compound: CCC(CC)O[C@@H]1CC(C(=O)O)C=C(n2cc(C(C)(C)O)nn2)[C@H]1NC(C)=O (stereo partly drawn) [Compound 30]

Compound: CC(=O)N[C@H]1[C@H]([C@H](O)[C@H](O)CN=[N+]=[N-])OC(C(=O)O)=C[C@@H]1O [Compound 32]
- IC50 (human NEU2; [1]): 31 ± 6 µM

Compound: [N-]=[N+]=NC[C@@H](O)[C@@H](O)[C@@H]1OC(C(=O)O)=C[C@H](O)[C@H]1NC(=O)CO [Compound 33]
- IC50 (human NEU2; [1]): 190 µM

Compound: COC[C@@H](O)[C@@H](O)[C@@H]1OC(C(=O)O)=C[C@H](O)[C@H]1NC(C)=O [Compound 35]
- IC50 (human NEU2; [1]): 410 µM

- IC50 (human NEU1): 360 ± 50 µM
- IC50 (human NEU3; NEU3 IC50, human NEU3): 54 ± 5 µM
- IC50 (human NEU4): 1000 ± 60 µM
Compound: CC(=O)N[C@@H]1C(N=[N+]=[N-])C=C(C(=O)O)OC1C(O)C(O)CO (stereo partly drawn) [Compound 37]

- IC50 (human NEU3; NEU3 IC50, human NEU3): 24 ± 2 µM
Compound: CC(=O)N[C@@H]1C(N=[N+]=[N-])C=C(C(=O)O)OC1CNOCc1ccccc1 (stereo partly drawn) [Compound 41]

- IC50 (human NEU3; NEU3 IC50, human NEU3): 24 ± 11 µM
- IC50 (human NEU4): 350 ± 180 µM
Compound: CC(=O)N[C@@H]1C(N=[N+]=[N-])C=C(C(=O)O)OC1CN(Cc1ccccc1)OCc1ccccc1 (stereo partly drawn) [Compound 42]

- IC50 (human NEU3; NEU3 IC50, human NEU3): 20 ± 8 µM
Compound: CC(=O)N[C@@H]1C(N=[N+]=[N-])C=C(C(=O)O)OC1CNNc1ccccc1 (stereo partly drawn) [Compound 43]

- IC50 (human NEU3; NEU3 IC50, human NEU3): 540 ± 30 µM
Compound: CC(=O)N[C@@H]1C(N)C=C(C(=O)O)OC1CNc1ccccc1 (stereo partly drawn) [Compound 44]

- IC50 (human NEU2; NEU2 IC50, human NEU2): 100 ± 13 µM
- IC50 (human NEU3; NEU3 IC50, human NEU3): 370 ± 80 µM
Compound: CC(=O)N[C@@H]1C(N)C=C(C(=O)O)OC1CNc1ccccc1 (stereo partly drawn) [Compound 45]

- IC50 (human NEU3; NEU3 IC50, human NEU3): 70 ± 20 µM
- IC50 (human NEU4): 200 ± 20 µM
Compound: CC(=O)N[C@@H]1C(O)C=C(C(=O)O)OC1CNNCc1ccc(-c2ccccc2)cc1 (stereo partly drawn) [Compound 47]

Compound: CC(=O)N[C@@H]1C(O)C=C(C(=O)O)OC1C(O)C(O)CN=[N+]=[N-] (stereo partly drawn) [Compound 48]
- IC50 (human NEU1): 620 ± 10 µM
- IC50 (human NEU3; NEU3 IC50, human NEU3): 19.7 ± 2.3 µM
- IC50 (human NEU4): 60 ± 20 µM

- IC50 (human NEU1): 29 ± 0.5 µM
- IC50 (human NEU3; NEU3 IC50, human NEU3): 4.7 ± 0.3 µM
- IC50 (human NEU4): 4.5 ± 0.1 µM
Compound: [N-]=[N+]=NCC(=O)N[C@@H]1C(O)C=C(C(=O)O)OC1C(O)C(O)CO (stereo partly drawn) [Compound 49]

- IC50 (human NEU4): 250 ± 40 µM
Compound: O=C(Cn1cc(-c2ccccc2)nn1)N[C@@H]1C(O)C=C(C(=O)O)OC1C(O)C(O)CO (stereo partly drawn) [Compound 50]

- IC50 (human NEU1; [2]): 200 ± 30 µM
- IC50 (human NEU3; [3]): 4.6 ± 0.2 µM
- IC50 (human NEU4; [4]): 2.3 ± 0.2 µM
Compound: CC(=O)N[C@H]1C([C@@H](O)[C@@H](O)Cn2cc(-c3ccccc3)nn2)OC(C(=O)O)=C[C@@H]1O (stereo partly drawn) [Compound 51]

- IC50 (human NEU1; [2]): 170 ± 20 µM
- IC50 (human NEU3; [3]): 90 ± 10 µM
- IC50 (human NEU4; [4]): 3.6 ± 0.3 µM
Compound: CCOc1cn(C[C@H](O)[C@H](O)C2OC(C(=O)O)=C[C@H](O)[C@H]2NC(C)=O)nn1 (stereo partly drawn) [Compound 52]

- IC50 (human NEU2; [1]): 800 ± 70 µM
- IC50 (human NEU3; [3]): 5.5 ± 0.6 µM
- IC50 (human NEU4; [4]): 1.7 ± 0.2 µM
Compound: CC(=O)N[C@H]1C([C@@H](O)[C@@H](O)Cn2cc(OCc3ccccc3)nn2)OC(C(=O)O)=C[C@@H]1O (stereo partly drawn) [Compound 53]

- IC50 (human NEU1; [2]): > 1000 µM
- IC50 (human NEU3; [3]): 80 ± 10 µM
Compound: CC(=O)N[C@H]1C([C@@H](O)[C@@H](O)Cn2cc(CO)nn2)OC(C(=O)O)=C[C@@H]1O (stereo partly drawn) [Compound 54]

- IC50 (human NEU1; [2]): > 1000 µM
- IC50 (human NEU3; [3]): 38 ± 2 µM
- IC50 (human NEU4; [4]): 0.81 ± 0.04 µM
Compound: CC(=O)N[C@H]1C([C@@H](O)[C@@H](O)Cn2cc(CCO)nn2)OC(C(=O)O)=C[C@@H]1O (stereo partly drawn) [Compound 55]

- IC50 (human NEU1; [2]): 660 ± 20 µM
- IC50 (human NEU3; [3]): 39 ± 1 µM
- IC50 (human NEU4; [4]): 2.1 ± 0.1 µM
Compound: CC(=O)N[C@H]1C([C@@H](O)[C@@H](O)Cn2cc(CCCO)nn2)OC(C(=O)O)=C[C@@H]1O (stereo partly drawn) [Compound 56]

- IC50 (human NEU1; [2]): > 1000 µM
- IC50 (human NEU4; [4]): 4 ± 0.3 µM
Compound: CC(=O)N[C@H]1C([C@@H](O)[C@@H](O)Cn2cc(C(C)(C)O)nn2)OC(C(=O)O)=C[C@@H]1O (stereo partly drawn) [Compound 57]

Compound: SAP: human SAP (Calbiochem), serum amyloid protein
- fibrocyte formation / differentiation (human PBMC): No fibrocytes were detected
